Laboratory results taken from patent publication US7534871B2, “Preparation and use of carbohydrate-based bicyclic ring structures with antimicrobial and cytostatic activity” (Kemin Pharma B.V.B.A., priority 2004, dated 2009).

Key:
[1] = tested on: murine leukemia cells (L1210/0); test: Cytostatic activity: inhibition of proliferation of L1210/0 cells; assay type: cell-based; details: Mus musculus, L1210/0; 50% inhibitory concentration, cell proliferation; read-out: IC50 L1210/0
Protocol: (§1) The compounds were tested for anti-tumor activity via the inhibitory effects on the proliferation of murine leukemia cells (L1210/0), murine mammary carcinoma cells (FM3A), human T-lymphocyte cells (Molt4/C8, CEM/0) and human cervix carcinoma cells (HeLa).

HSV-1 (KOS) = test: Anti-viral activity: HSV-1-induced cytopathicity in human embryo fibroblast E6SM cell cultures; assay type: cell-based, herpes simplex virus (HSV); details: Human alphaherpesvirus 1, 50%
HEL cells = test: Cytotoxicity: alteration of cell morphology (MCC); assay type: cell-based, human; details: minimum cytotoxic concentration that causes a microscopically detectable alteration of cell morphology
CMV AD-169 strain = test: Anti-CMV activity: plaque reduction in HEL cells, AD-169 strain; assay type: cell-based, human cytomegalovirus (CMV); details: Human betaherpesvirus 5, AD169, HEL; Table 6; reduce virus plaque formation by 50%; virus input 100 PFU; read-out: Anti-CMV activity IC50 AD-169 strain
[2] = tested on: human T-lymphocyte cells (CEM/0); test: Cytostatic activity: inhibition of proliferation of CEM/0 cells; assay type: cell-based; details: CCRF-CEM, 50% inhibitory concentration, cell proliferation, read-out: IC50 CEM/0
Protocol: as §1

[3] = Cytotoxicity: inhibition of HEL cell growth (CC50); assay type: cell-based; details: human; concentration required to reduce cell growth by 50%; HEL cells, three days
Protocol: The medium was then replaced by MEM containing various concentrations of the test compound. After three days incubation at 37° C., when the cell monolayer was 70% confluent, the cell number was determined with the Coulter counter. The minimum cytotoxic concentration was defined as the concentration required to reduce cell growth by 50%.

[4] = tested on: human T-lymphocyte cells (Molt4/C8); test: Cytostatic activity: inhibition of proliferation of Molt4/C8 cells; assay type: cell-based; details: Molt4/C8, 50% inhibitory concentration, cell proliferation, read-out: IC50 Molt4/C8
Protocol: as §1

[5] = tested on: murine mammary carcinoma cells (FM3A); test: Cytostatic activity: inhibition of proliferation of FM3A cells; assay type: cell-based; details: Mus musculus, 50% inhibitory concentration, cell proliferation, read-out: IC50 FM3A/0
Protocol: as §1

[6] = tested on: human cervix carcinoma cells (HeLa); test: Cytostatic activity: inhibition of proliferation of HeLa cells; assay type: cell-based; details: 50% inhibitory concentration, cell proliferation
Protocol: as §1

VZV YS = test: Anti-viral activity: VZV-induced plaque formation in HEL cell cultures, YS strain; assay type: cell-based, varicella zoster virus (VZV); details: Human alphaherpesvirus 3, VZV-induced plaque formation in human embryonic lung HEL cell cultures, 50%
HSV-2 (G) = test: Anti-viral activity: HSV-2-induced cytopathicity in human embryo fibroblast E6SM cell cultures; assay type: cell-based, herpes simplex virus (HSV); details: Human alphaherpesvirus 2, 50%
VZV OKA = test: microbe, parasite or virus in culture; assay type: cell-based, varicella zoster virus (VZV); details: Human alphaherpesvirus 3, HEL, read-out: EC50 VZV (HEL) OKA
VV = test: microbe, parasite or virus in culture; assay type: cell-based; details: Orthopoxvirus vaccinia, E6SM, read-out: EC50 VV (E6SM)
CMV Davis strain = test: Anti-CMV activity: plaque reduction in HEL cells, Davis strain; assay type: cell-based, human cytomegalovirus (CMV); details: Human betaherpesvirus 5, HEL; Table 6; reduce virus plaque formation by 50%; virus input 100 PFU; read-out: Anti-CMV activity IC50 Davis strain

## CCO[C@@H]1[C@@H](OCC)[C@H](Sc2ccccc2)O[C@@H]2CO[C@@H](c3ccccc3)O[C@@H]12 [KPE00001050]
[1]
  IC50: > 200 µg/mL
HSV-1 (KOS)
  EC50: > 3.2 µg/mL
HEL cells
  Cytotoxicity Cell morphology (MCC): >50 μg/ml
CMV AD-169 strain
  IC50: > 50 µg/mL
[2]
  IC50: > 200 µg/mL
[3]
  CC50 at 3 days: > 50 µg/mL
[4]
  IC50: > 200 µg/mL
[5]
  IC50: > 200 µg/mL
[6]
  IC50: > 200 µg/mL
VZV YS
  EC50: > 5 µg/mL
HSV-2 (G)
  EC50: > 3.2 µg/mL
VZV OKA
  EC50: > 5 µg/mL
VV
  EC50: > 3.2 µg/mL
CMV Davis strain
  IC50: > 50 µg/mL
